# Data as given in patent publication US20060292076A1, “Antimicrobial mediated ozone generation” (priority 2002, published 2006).
# Entries after “also recorded” stand apart in the source; their conditions may differ.
# How the values were obtained:
# [1] = Production of hydrogen peroxide by immunoglobulins and proteins under UV irradiation (Amplex Red assay); assay type: biochemical; settings: for ability of non-immunoglobulin proteins to reduce ^1O2 / generate H2O2: irradiation in PBS
# Experimental: All assays were carried out in PBS (10 mM phosphate/160 mM sodium chloride, pH 7.4). Commercial protein solution samples were dialyzed into PBS as necessary. Amplex Red hydrogen peroxide assay kits (A-12212) were obtained from Molecular Probes.
# Antibody/Protein Irradiation. Unless otherwise stated, the assay solution (100 μl, 6.7 μM protein in PBS, pH 7.4) was added to a glass vial, sealed with a screw-cap, and irradiated with either UV (312 nm, […] Fischer-Biotech transilluminator) or visible light.
# Quantitative Assay for Hydrogen Peroxide. An aliquot (20 μl) from the protein solution was removed and added into a well of a 96-well microtiter plate (Costar) containing reaction buffer (80 μL). Working solution (100 μl/400 μM Amplex Red reagent ½ units/ml horseradish peroxidase) was then added, and the plate was incubated in the dark for 30 min. The fluorescence of the well components was then measured using a CytoFluor Multi well Plate Reader (Series 4000, PerSeptive Biosystems, Framingham, Mass.; Ex/Em: 530/580 nm). The hydrogen peroxide concentration was determined using a standard curve. All experiments were run in duplicate, and the rate is quoted as the mean of at least two measurements.
# [2] = H2O2 formation with hematoporphyrin IX sensitization and visible light (sensitization and quenching assays); assay type: biochemical; settings: D2O or NaN3 (40 mM)
# Experimental: Sensitization and Quenching Assays. A solution of 31127 (100 μl of horse IgG, 6.7 μM) in PBS (pH 7.4, 4% dimethylformamide) and hematoporphyrin IX (40 μM) was placed in proximity to a strip light. Hydrogen peroxide concentration was determined as described herein. […]
# Assay for H2O2 production as a function of the efficiency of ^1O2 formation via ^3O2 sensitization with hematoporphyrin IX: The assay is a modification of a procedure developed by H. Sakai and co-workers, Proc. SPE-Int. Soc. Opt. Eng., 2371, 264 (1995). In brief, the horse poly-IgG (1 mg/mL) in PBS (50 mM, pH 7.4) and hematoporphyrin IX (40 μM) is irradiated with white light from a transilluminator. Aliquots are removed (50 μL) and the concentration of H2O2 and 3-aminophthalic acid measured simultaneously. H2O2 concentration was measured by the amplex red assay (Zhou et al., Anal. Biochem., 253, 162 (1997)). 3-Aminophthalic acid concentration was measured by reversed-phase HPLC on a Hitachi D4000 series machine with an Adsorbosphere-C18 column, a UV detector at 254 nm, and a mobile phase of acetonitrile/water (0.1% TFA) of 18:82 at 1 mL/min (retention time of luminol=7.4 min and 3-aminophthalic acid 3.5 min). The concentrations of luminol and 3-aminophthalic acid were determined by comparison of peak height and area to control samples. […]
# E. coli = assay: Bactericidal assay, E. coli (strain not singled out or both serotypes); assay type: cell-based
# Experimental: (§1) In a typical experiment, a culture of E. coli (in log phase growth, OD600=0.2-0.3) was repeatedly pelleted (3×3,500 rpm) and resuspended in PBS (pH 7.4). The PBS suspended cells were then added to glass vials and cooled to 4° C. Hematoporphyrin IX (40 μM) and antibody (20 μM) were added and the vials were either placed on a light box (visible light, 2.8 mW cm^−2) or in the dark at 4° C. and incubated for 1 h. Viability was determined by recovery of colony forming units (CFUs) on agar plates. Each experiment was performed at least in duplicate.
# as §1, with “washed in PBS by pelleting” for “pelleted”, “rpm) the cells” for “rpm)”, “resuspending them” for “resuspended”
# [3] = Consumption of hydrogen peroxide by catalase (peroxide stick test); assay type: biochemical; settings: 1 min after addition of catalase
# Experimental: Consumption of Hydroen Peroxide by Catalase. A solution of EP2-19G12 (100 μl of mouse IgG, 20 μM in PBS, pH 7.4) was irradiated with UV light for 30 min, after which time the concentration of hydrogen peroxide was determined by stick test (EM Quant Peroxide Test Sticks) to be 2 mg/liter.
molecule,measurement,setting,value
"superoxide dismutase: enzyme, Sigma",ability of non-immunoglobulin proteins to reduce ^1O2 / generate H2O2,[1],the same as irradiation of PBS alone; also recorded: do not reduce; also recorded: does not reside
"[2H]O[2H] [Clone D2O, D2O]",rate of formation of H2O2 by horse IgG with HP (40 μM) in visible light in the presence of additive,[2],increased
"N[C@@H](Cc1c[nH]c2ccccc12)C(=O)O [Trp, tryptophan]",H2O2 production during near-UV irradiation,"[1]; tryptophan 20 μM, FIG. 11A",ca. 0.5 mole equivalents
CC1=C(CCC(=O)O)c2cc3[nH]c(cc4nc(cc5[nH]c(cc1n2)c(C)c5C(C)O)C(C)=C4C(C)O)c(C)c3CCC(=O)O (stereo not shown) [hematoporphyrin IX],bactericidal activity,"E. coli; HPIX 40 μM, white light 1 h, 4 °C",negligible bactericidal activity
O=C(O)CN(CCN(CC(=O)O)CC(=O)O)CC(=O)O [EDTA],effect of presence of EDTA on the survival of bacteria,E. coli; 2 mM,no effect
[N-]=[N+]=[N-].[Na+] [NaN3],rate of formation of H2O2 by horse IgG with HP (40 μM) in visible light in the presence of additive,[2],reduced
chick ovalbumin: chick-egg ovalbumin,ability of non-immunoglobulin proteins to reduce ^1O2 / generate H2O2,[1],one of the most efficient proteins at reducing
"β-galactosidase: non-immunoglobulin protein, Sigma",H2O2 generated by photo-production,"[1]; from its 39 Trp residues, FIG. 8A",5.9 mol eq.
"catalase: enzyme that converts H2O2 to water and molecular oxygen (protein, UniProt P00432 2-527, looked up) Catalase: ADNRDPASDQMKHWKEQRAAQKPDVLTTGGGNPVGDKLNSLTVGPRGPLLVQDVVFTDEMAHFDRERIPERVVHAKGAGAFGYFEVTHDITRYSKAKVFEHIGKRTPIAVRFSTVAGESGSADTVRDPRGFAVKFYTEDGNWDLVGNNTPIFFIRDALLFPSFIHSQKRNPQTHLKDPDMVWDFWSLRPESLHQVSFLFSDRGIPDGHRHMNGYGSHTFKLVNANGEAVYCKFHYKTDQGIKNLSVEDAARLAHEDPDYGLRDLFNAIATGNYPSWTLYIQVMTFSEAEIFPFNPFDLTKVWPHGDYPLIPVGKLVLNRNPVNYFAEVEQLAFDPSNMPPGIEPSPDKMLQGRLFAYPDTHRHRLGPNYLQIPVNCPYRARVANYQRDGPMCMMDNQGGAPNYYPNSFSAPEHQPSALEHRTHFSGDVQRFNSANDDNVTQVRTFYLKVLNEEQRKRLCENIAGHLKDAQLFIQKKAVKNFSDVHPEYGSRIQALLDKYNEEKPKNAVHTYVQHGSHLSAREKANL",extent of protection against antigen-specific antibodies,E. coli; catalase 13 mU/mL,varied over a wide range
same,protection against the bactericidal activity of non-specific antibodies,E. coli; catalase 13 mU/mL,complete protection; also recorded: completely attenuated
same,concentration of H2O2 after catalase,[3],0 mg/L
"RNase A: non-immunoglobulin protein, Amersham Pharmacia (protein, UniProt P61823 27-150, looked up) Ribonuclease pancreatic: KETAAAKFERQHMDSSTSAASSSNYCNQMMKSRNLTKDRCKPVNTFVHESLADVQAVCSQKNVACKNGQTNCYQSYSTMSITDCRETGSSKYPNCAYKTTQANKHIIVACEGNPYVPVHFDASV",ability of non-immunoglobulin proteins to reduce ^1O2 / generate H2O2,[1],do not reduce
same,ability of non-immunoglobulin proteins to reduce ^1O2 / generate H2O2,[1]; listed as RNaseA,does not reside
